Results on two molecules are retold here after US8460669B2, “Compositions and methods for identifying response targets and treating flavivirus infection responses” (Academia Sinica, priority 2005, dated 2013).

One assay has as its target T1, TLR4.Fc (Homo sapiens, UniProt O00206).
T1 construct: The extracellular domains of several innate immunity receptors from immune cells were cloned by reverse-transcription polymerase chain reaction (RT-PCR); made in house; host or cells: 293-F (FreeStyle 293) cells
Description: Sugar competition EIA, TLR4.Fc binding to GLPS-F3. The note with it: sugar 1 mg/ml. The procedure: (§1) The interaction between GLPS-F3 and receptor.Fc was then tested. Unbiotinylated GLPS-F3 was immobilized at 100 ng/well as described above, and 100 μL receptor.Fc fusion protein (1 μg/ml in 2 mM MgCl2/2 mM CaCl2/1% BSA/TBST) was added into each well and incubated for 1 hour at room temperature. After washing with TBST, wells were incubated with peroxidase-conjugated goat anti-human IgG Ab (1:5000 dilution, Jackson ImmunoResearch Laboratories) in blocking buffer at room temperature for 30 min. Wells were incubated with 100 μL TMB substrate for 15 min after TBST washing and read at 450 nm in a Fusion plate reader (Perkin Elmer). The results were normalized with respect to Fc.Dectin-1 binding (Dectin-1 is a known lectin receptor that binds to β-1,3-glucan which is the backbone found in GLPS-F3). FIG. 6B depicts in graphical form the affinity of each receptor for GLPS-F3 relative to Dectin-1. […] There was also weaker but positive GLPS-F3 binding ability (25-50% binding intensity compared to Fc.dectin-1) found in Fc.NKG2D, Fc.MINCLE, Fc.mKCR, DCAL1.Fc, DEC205.Fc, Endo180.Fc and NKp30(NCR3).Fc.
(§2) To understand the interaction of GLPS-F3 with specific innate immunity receptors, the polysaccharides mannan and β-glucan and the monosaccharides D-mannose (Man), D-glucose (Glc), N-acetyl-glucosamine (GlcNAc), D-galactose (Gal), N-acetyl-galactosamine (GalNAc), L-fucose (Fuc) and sialic acid, were used in a competition assay. […] The assays were carried out as in Example 9, with the addition of 1 mg/ml of each polysaccharide or monosaccharide.

Assay [1] has as its target T2, DC-SIGN (Homo sapiens, UniProt Q9NNX6).
T2 construct: The extracellular domains of lectin receptors, TREMs and TLTs were cloned by the reverse-transcriptase polymerase chain reaction (RT-PCR); made in house; host or cells: 293-F (FreeStyle 293) cells
T2 sequence (Q9NNX6 59-404 limits assumed): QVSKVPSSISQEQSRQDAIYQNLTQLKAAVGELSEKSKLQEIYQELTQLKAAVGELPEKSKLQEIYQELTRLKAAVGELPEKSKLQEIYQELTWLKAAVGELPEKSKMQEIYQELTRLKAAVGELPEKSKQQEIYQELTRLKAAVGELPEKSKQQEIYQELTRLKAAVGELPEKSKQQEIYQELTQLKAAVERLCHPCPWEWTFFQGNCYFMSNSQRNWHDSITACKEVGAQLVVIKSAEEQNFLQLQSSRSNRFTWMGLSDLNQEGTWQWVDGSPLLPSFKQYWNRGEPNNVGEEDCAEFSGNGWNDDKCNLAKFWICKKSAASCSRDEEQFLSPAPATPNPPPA
Description: Sugar competition EIA, Fc.DC-SIGN binding to GLPS-F3. Particulars: sugar 1 mg/ml. The procedure:
as §1, §2

Another assay deals with T3, Langerin (Homo sapiens, UniProt Q9UJ71).
T3 construct: The extracellular domains of lectin receptors, TREMs and TLTs were cloned by the reverse-transcriptase polymerase chain reaction (RT-PCR); made in house; host or cells: 293-F (FreeStyle 293) cells
Description: Sugar competition EIA, Fc.Langerin binding to GLPS-F3. Particulars: sugar 1 mg/ml. The method, then: as §1, §2

The next assay has as its target T4, MMR.Fc (Homo sapiens, UniProt P22897).
T4 construct: The extracellular domains of lectin receptors, TREMs and TLTs were cloned by the reverse-transcriptase polymerase chain reaction (RT-PCR); made in house; host or cells: 293-F (FreeStyle 293) cells
T4 sequence (P22897 19-1389 limits assumed): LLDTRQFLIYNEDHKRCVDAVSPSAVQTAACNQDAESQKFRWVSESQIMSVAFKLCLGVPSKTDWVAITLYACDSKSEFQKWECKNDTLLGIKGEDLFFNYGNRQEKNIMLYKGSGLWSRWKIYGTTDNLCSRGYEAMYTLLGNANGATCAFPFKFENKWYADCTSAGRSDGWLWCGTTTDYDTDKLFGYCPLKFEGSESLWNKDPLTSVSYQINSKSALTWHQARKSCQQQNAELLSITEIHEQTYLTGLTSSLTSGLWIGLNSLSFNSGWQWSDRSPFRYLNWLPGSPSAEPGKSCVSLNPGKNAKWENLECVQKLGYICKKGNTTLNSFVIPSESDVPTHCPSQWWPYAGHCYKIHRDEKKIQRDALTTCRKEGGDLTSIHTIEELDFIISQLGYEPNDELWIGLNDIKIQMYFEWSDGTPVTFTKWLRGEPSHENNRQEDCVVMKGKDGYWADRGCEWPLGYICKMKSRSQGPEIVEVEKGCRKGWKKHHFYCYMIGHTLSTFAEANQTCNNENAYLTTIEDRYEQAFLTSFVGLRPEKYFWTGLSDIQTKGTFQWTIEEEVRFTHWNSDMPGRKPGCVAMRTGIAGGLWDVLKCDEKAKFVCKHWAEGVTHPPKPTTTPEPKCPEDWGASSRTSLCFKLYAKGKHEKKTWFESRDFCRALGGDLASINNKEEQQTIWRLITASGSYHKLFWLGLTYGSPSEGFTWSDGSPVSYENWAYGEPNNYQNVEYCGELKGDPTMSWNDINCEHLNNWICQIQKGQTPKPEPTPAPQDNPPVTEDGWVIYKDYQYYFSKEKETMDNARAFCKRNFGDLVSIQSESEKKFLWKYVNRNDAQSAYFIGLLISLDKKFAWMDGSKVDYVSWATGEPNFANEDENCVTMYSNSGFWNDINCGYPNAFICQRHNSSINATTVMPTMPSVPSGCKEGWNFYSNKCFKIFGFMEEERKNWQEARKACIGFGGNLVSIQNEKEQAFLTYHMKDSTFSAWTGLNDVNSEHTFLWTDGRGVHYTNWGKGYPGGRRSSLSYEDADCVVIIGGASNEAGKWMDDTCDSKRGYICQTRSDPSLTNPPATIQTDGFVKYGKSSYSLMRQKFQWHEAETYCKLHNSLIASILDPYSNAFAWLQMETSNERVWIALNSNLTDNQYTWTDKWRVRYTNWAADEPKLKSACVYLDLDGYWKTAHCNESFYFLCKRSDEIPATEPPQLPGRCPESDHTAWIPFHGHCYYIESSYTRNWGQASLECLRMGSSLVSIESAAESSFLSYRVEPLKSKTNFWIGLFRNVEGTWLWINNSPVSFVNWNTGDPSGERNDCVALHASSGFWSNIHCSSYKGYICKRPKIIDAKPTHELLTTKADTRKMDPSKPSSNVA
Nature of the assay: Sugar competition EIA, MMR.Fc binding to GLPS-F3. The note with it: sugar 1 mg/ml. The method, then:
as §1, §2

Assay [2] deals with T5, DC-SIGN (Homo sapiens, UniProt Q9NNX6).
T5 construct: expressed in transfected cells; host or cells: 293T cells
T5 sequence (Q9NNX6 1-404): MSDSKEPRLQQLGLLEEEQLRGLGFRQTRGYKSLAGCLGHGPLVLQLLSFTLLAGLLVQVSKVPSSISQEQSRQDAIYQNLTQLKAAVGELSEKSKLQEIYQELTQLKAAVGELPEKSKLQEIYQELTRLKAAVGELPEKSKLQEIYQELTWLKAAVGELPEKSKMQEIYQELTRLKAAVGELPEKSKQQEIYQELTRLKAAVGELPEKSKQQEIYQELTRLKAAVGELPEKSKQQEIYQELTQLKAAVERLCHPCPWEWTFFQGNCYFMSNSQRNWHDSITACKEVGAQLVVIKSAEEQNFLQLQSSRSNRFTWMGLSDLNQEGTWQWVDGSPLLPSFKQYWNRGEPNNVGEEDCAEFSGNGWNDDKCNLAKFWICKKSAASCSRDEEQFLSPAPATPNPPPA
Description: Sugar competition, biotinylated DV binding to DC-SIGN-transfected 293T cells. It counts as cell-based. Particulars: flow cytometry. The method, then: In FIG. 16b, complexes of DV (5×10^6 PFU) with receptor.Fc (5 μg) were immunoprecipitated and detected on westerns with mAb to DV envelope (E) protein. […] FIGS. 16d and 16e show sugar competition assays wherein both DC-SIGN (CLEC4L) and DVLR1/CLEC5A increase DV binding to human 293T cells (FIG. 16d), while addition of sugars inhibits biotinylated DV binding to DC-SIGN- (left panel) or DLVR1/CLEC5A- (right panel) transfected 293T cells in a dose-dependent manner as determined by flow cytometry (FIG. 16e). According to FIG. 16e, MFI represents mean fluorescence intensity. Units (U) for monosaccharide (mannose and fucose) and polysaccharide (mannan) are mM and mg/ml, respectively. […] Data are expressed as the mean±s.d. of three independent experiments. Two-tailed, Student's t-tests were performed.
There are two conserved N-linked glycosylation sites at Asn-67 and Asn-153 of E protein (Pokidysheva, E. et al., Cell 124:485-93 (2006)), and the attached glycans (with terminal fucose and mannose) have been implicated in cellular attachment and viral entry (Modis, Y. et al., J. Virol. 79:1223-1231 (2005)). To investigate the participation of glycans in the association of DVLR1/CLEC5A with DV, virions were incubated with fucose, mannose, or mannan; where the last two sugars are the ligands for DC-SIGN (Mitchell et al., J. Biol. Chem. 276: 28939-28945 ([…])).

For another assay, the system named is JEV. Nature of the assay: ELISA of DVLR1/CLEC5A.Fc interaction with JEV. It counts as binding, Japanese encephamyelitis virus. The note with it: 1 μg; JEV 5×10^6 PFU. The method, then:
Like with DV, JEV follows a similar virus infection response pattern, which is believed to be the same or similar in all flaviviruses. […] (1 μg), with JEV and DV (5×10^6 PFU), respectively, were determined by ELISA. DV interacts with human DVLR1/CLEC5A (187 amino acid in length) SEQ ID NO: 72, but not the alternatively spliced form sDVLR1/CLEC5A (aa 43-65 is deleted). SEQ ID NO: 73. […] DAP12 in DV-infected macrophages were precipitated by anti-DAP12 mAb, blotted to nitrocellulose paper after fractionation on SDS-PAGE, followed by incubation with antibodies against phosphotyrosine and DAP12, respectively. JEV-induced DAP12 phosphorylation (m.o.i.=5) is inhibited by pLL3.7/DVLR1/CLEC5A. […] JEV-induced TNF-α secretion is inhibited by […] mAb (right). Data are expressed as the mean±s.d. of three independent experiments.

For the next assay, the system named is Dengue virus. Description: ELISA of receptor.Fc interaction with Dengue virus. The note with it: receptor.Fc 1 μg; DV 5×10^6. It counts as binding. The method, then: One μg of each receptor.Fc fusion protein was coated onto microtiter plates overnight at 4° C. DV (5×10^6 particles) of strain 16681 (a DEN2 strain) in binding buffer (1% BSA, 2 mM CaCl2, 2 mM MgCl2, 50 mM Tris-HCl pH 7.5, 150 mM NaCl) was then added to the plates and the plates were incubated for 2 hours. After washing non-bound virus, a biotinylated anti-DEN2 envelope protein antibody (Wu et al., J Virol, 2002. 76(8): p. 3596-604) was applied to bind to the virus for 1 hour. Diluted horseradish peroxidase-conjugated streptavidin was then added to the plates, followed by a 1 hour incubation. TMB substrate was then added and the plates were read using an ELISA reader at OD450 nm.
The microtiter plate assay was repeated in the presence of EDTA (10 mM) to chelate Ca^++ cations.
The microtiter plate assay was also repeated for DVLR1/CLEC5A.Fc fusion protein with DV particles (5×10^6) that had been 1) preincubated with 500 U of the glycosidase PNGaseF (New England Biolabs, Inc.) overnight at 37° C.; or 2) treated with dithiothreitol (DTTI) (0.1M); or 3) incubated at 95° C. for 5 minutes; or 4) UV irradiated for 5 minutes. The results are shown in FIG. 8D (asterisks indicate where the binding affinity of DVLR1/CLEC5A.Fc fusion protein is altered by modification of the virus relative to non-treated virus; ** p<0.01, *** p<0.001, Student's t test). […]

T1 sequence (O00206 24-631 limits assumed): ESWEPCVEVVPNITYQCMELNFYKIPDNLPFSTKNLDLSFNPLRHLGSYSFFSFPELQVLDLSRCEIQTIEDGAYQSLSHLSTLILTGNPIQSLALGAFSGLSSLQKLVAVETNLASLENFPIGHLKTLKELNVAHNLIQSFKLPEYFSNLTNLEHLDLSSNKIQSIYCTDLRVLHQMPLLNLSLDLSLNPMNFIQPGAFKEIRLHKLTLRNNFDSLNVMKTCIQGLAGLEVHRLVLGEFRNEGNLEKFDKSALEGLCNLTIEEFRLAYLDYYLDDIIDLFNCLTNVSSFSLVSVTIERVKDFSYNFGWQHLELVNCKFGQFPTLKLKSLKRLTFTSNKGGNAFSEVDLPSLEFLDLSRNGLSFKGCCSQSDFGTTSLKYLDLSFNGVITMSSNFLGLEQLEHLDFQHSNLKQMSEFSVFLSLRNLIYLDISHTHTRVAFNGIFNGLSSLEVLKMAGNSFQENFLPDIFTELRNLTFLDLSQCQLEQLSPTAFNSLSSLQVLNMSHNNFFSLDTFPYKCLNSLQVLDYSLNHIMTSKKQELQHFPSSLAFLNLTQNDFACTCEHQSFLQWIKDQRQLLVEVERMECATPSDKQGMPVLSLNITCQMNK
T3 sequence (Q9UJ71 65-328 limits assumed): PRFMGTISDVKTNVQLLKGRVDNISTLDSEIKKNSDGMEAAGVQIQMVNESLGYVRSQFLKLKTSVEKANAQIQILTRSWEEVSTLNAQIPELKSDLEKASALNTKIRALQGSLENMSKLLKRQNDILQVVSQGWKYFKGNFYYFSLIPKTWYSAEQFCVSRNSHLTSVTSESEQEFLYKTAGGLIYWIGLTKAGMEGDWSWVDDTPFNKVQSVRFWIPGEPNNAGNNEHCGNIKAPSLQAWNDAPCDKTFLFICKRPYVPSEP

On to `O=C[C@@H](O)[C@@H](O)[C@H](O)[C@H](O)CO` [Man, D-mannose], for which, on TLR4.Fc, the “Percentage of binding of TLR4.Fc to GLPS-F3 relative to binding in absence of sugar competitor” value was 89 ± 2.6%. Further, the “inhibition of binding of Fc.DC-SIGN to GLPS-F3” value at DC-SIGN [1] was 72%. The “inhibition of interaction between Fc.Langerin and GLPS-F3” value at Langerin was 26%. The “inhibition of interaction between GLPS-F3 and MMR.Fc” value on MMR.Fc was found to be 87%. Also, the “inhibition of the DC-SIGN-DV interaction” value at DC-SIGN [2] was “dose-dependent inhibition”.

B1: sDVLR1/CLEC5A: alternatively spliced form of human DVLR1/CLEC5A (aa 43-65 deleted), SEQ ID NO: 73 (protein)
chain: MNWHMIISGLIVVVLKVVGMTLFLLYFPQIFNKSNDGFTTTRSYGTVCPKDWEFYQARCFFLSTSESSWNESRDFCKGKGSTLAIVNTPEKLFLQDITDAEKYFIGLIYHREEKRWRWINNSVFNGNVTNQNQNFNCATIGLTKTFDAASCDISYRRICEKNAK
modifications: Human
In the case of B1, the “interaction with JEV (ELISA)” value with JEV is “only interacts”. Further, the “interaction of receptor.Fc with Dengue virus (ELISA)” value in the assay on Dengue virus is “not”.
